We go through 22 molecules from patent US20040092584A1, “Substance or composition for the treatment of cancer” (priority 2000, published 2004).

The subject of one test is HeLa. Description: Growth of cancer cell lines, MTT reactivity (HeLa). The test is classed as cell-based, human. The settings on record: mean drug concentration causing 50% cell killing, 3-4 experiments, 72 to 96 h, read-out: IC 50 (μM) HeLa. As to the method:
(§1) The sensitivities of the two cancer cell lines HeLa, which is a sensitive human cervix epitheloid carcinoma cell line, and CoLo 320DM, which is an intrinsically multidrug resistant human colon adeno-carcinoma cell line, to 13 of the complexes of the invention was tested.

A further test has as its system CoLo 320DM. Description: Growth of cancer cell lines, MTT reactivity (CoLo 320DM). Type of test: cell-based, human. The conditions noted are these: mean drug concentration causing 50% cell killing, 3-4 experiments, 72 to 96 h, multidrug resistant line, read-out: IC 50 (μM) CoLo 320DM. The protocol:
as §1

A further test has as its system COR L23. Description: Growth of cancer cell lines, MTT reactivity (COR L23). The settings on record: mean drug concentration causing 50% cell killing, 3-4 experiments, 72 to 96 h, read-out: IC 50 (μM) COR L23. Type of test: cell-based, human.
The test system of test [1] is PHA-stimulated human lymphocytes. Description: Proliferation of PHA-stimulated human lymphocytes, MTT reactivity. The settings on record: for IC50: read-out: IC 50 (μM) PHA-stimulated lymphocytes, mean drug concentration causing 50% cell killing, PHA 2.5 μg/ml, 72 h, MTT; for Tumor specificity: activity against tumor cells versus stimulated normal human lymphocytes: tumor cells versus PHA-stimulated lymphocytes (Table 1).
Description: In these experiments suspensions of purified human mononuclear leukocytes were cultured in RPMI medium supplemented with 10% fetal calf serum (FCS) at 37° C. in an atmosphere of 5% CO2 in 96 well round bottom microtitre plates. To some of the wells a mitogen (phytohaemagglutinin, PHA) was added at a concentration of 2.5 μg/ml. The cultures were treated with either ferrocene-containing β-diketones or their rhodium complexes at varying concentrations for 72 h, and the extent of cell growth was assayed by MTT reactivity.

A further test concerns COR L23/CPR. Briefly: Growth of cancer cell lines, MTT reactivity (COR L23/CPR). The test is classed as cell-based, human. The conditions noted are these: mean drug concentration causing 50% cell killing, 3-4 experiments, 72 to 96 h, platinum resistant variant, read-out: IC 50 (μM) COR L23/CPR.
Test [2] concerns Chinese hamster ovary (CHO) cells. Briefly: Survival of CHO cells after irradiation under hypoxic conditions. The test is classed as cell-based. The settings on record: for Mean Inactivation Dose (Gy) / Dose Modifying Factor (DMF): hypoxic conditions; for Mean Inactivation Dose (Gy): 8 MV photon beam; for Dose Modifying Factor (DMF): ratio of mean inactivation doses; for Sensitivity of CHO cells to irradiation under hypoxic conditions (in words): submicromolar concentrations. The protocol: CHO cells were treated in glass test tubes with non-toxic concentrations (0.39 μM and 0.78 μM) of the two rhodium-ferrocene complexes [Rh(fctca)(cod)] and [Rh(fctfa)(cod)] and irradiated with an 8 MV photon beam in a modular incubator chamber with a 2 cm tissue equivalent wax buildup (8MVmax) under aerobic and hypoxic conditions.
Neither of the two rhodium complexes tested increased the sensitivity of CHO cells to irradiation in an aerobic environment (results not shown). However, both complexes increased the sensitivity of CHO cells under hypoxic conditions (FIGS. 4 and 5). A dose-modifying factor of 2.9 was obtained under hypoxic conditions for 0.78 μM [Rh(fctfa)(cod)] (Table 2) and 1.9 for 0.39 μM [Rh(fctca)(cod)] (Table 3). The dose-modifying factors were calculated as the ratio of mean inactivation doses [calculated from the respective inactivation parameters obtained from the linear quadratic fit of the cell growth fraction (S)]. Published dose modifying factors (DMFs) measured for cisplatin range from 1.2-2 (Chibber R, Stratford I J, O'Neill P, Sheldon P W, Ahmed I, Lee B. 1985. The interaction between radiation and complexes of cis-Pt (II) and Rh (II): Studied at the molecular level. Int J Radiat Biol 48:513-524; Van De Vaart,. P J M, Klaren, H M, Holland I, Begg A C. 1997. Oral platinum analogue JM216, a radiosensitizer in oxic murine cells. Int J Radiat Biol 72(6):675-683).

Test [3] in a line: Anticancer activity of synthesis intermediates. The settings on record: intermediates of the published synthesis route.
The conditions of test [4]: published values; cited from earlier work.

Description for COR L23/CPR: In these experiments cancer cell lines were cultured in standard tissue culture medium supplemented with 10% fetal calf serum (FCS) at 37° C. In an atmosphere of 5% CO2 in 96 well round bottom microtitre plates. The cultures were treated with either ferrocene-containing β-diketones or their rhodium complexes at varying concentrations for 72 to 96 h, and the extent of cell growth was assayed by MTT [3-(4,5-dimethylthiazol-2yl)-2,5-diphenyl tetrazolium bromide] reactivity, which detects only viable cells.

On to `O=CCC(=O)[c-]1cccc1.[Fe+2].c1cc[cH-]c1` [Hfch, ferrocenoylacetaldehyde], for which the IC50 amounted to 73.4 µM in the test with HeLa and 80.8 µM in the test with CoLo 320DM.
Regarding `O=C(CC(=O)C(Cl)(Cl)Cl)[c-]1cccc1.[Fe+2].c1cc[cH-]c1` [Hfctca, ferrocenoyltrichloroacetone], the IC50 in the test on COR L23 was 12.5 µM; with HeLa, 37.7 µM; in test [1] it was 67.5 µM; in the test on COR L23/CPR it was 20.1 µM; with CoLo 320DM, 28.4 µM. Further, the “Radiosensitisation, initial tests (in words)” value in test [2] is listed as “promising”.
Take `C1=C\CC/C=C\CC/1.CC(=O)/C=C(/C)O.[Rh]` [Rh(acac)(cod)]: the IC50 is 97.3 µM with HeLa and more than 100 µM in the test on CoLo 320DM.
On to `C1=CCCC=CCC1.O=C(C=C([O-])c1ccccc1)[c-]1cccc1.[Fe+2].[Rh+].c1cc[cH-]c1` [Rh(bfcm)(cod), (η^4-1,5-cyclooctadiene)(1-ferrocenyl-3-phenyl-1,3-propanedionato-κ^2O,O′)rhodium(1)], for which the IC50 stood at 22.5 µM in the test with COR L23; 28.3 µM in the test with HeLa; 97.2 µM in test [1]; 22 µM with COR L23/CPR; 87.1 µM in the test with CoLo 320DM.
Consider `C1=CCCC=CCC1.CC([O-])=CC(=O)[c-]1cccc1.[Fe+2].[Rh+].c1cc[cH-]c1` [Rh(fca)(cod), (η^4-1,5-cyclooctadiene)(1-ferrocenyl-1,3-butanedionato-κ^2O,O′)rhodium(1)], for which the values for the IC50 in the test on HeLa and in the test with CoLo 320DM were 64.4 µM and 56.6 µM, respectively.
In the case of `C1=CCCC=CCC1.O=C(C=C([O-])C(Cl)(Cl)Cl)[c-]1cccc1.[Fe+2].[Rh+].c1cc[cH-]c1` [Rh(fctca)(cod), (η^4-1,5-cyclooctadiene)(1-ferrocenyl-4,4,4-trichloro-1,3-butanedionato-κ^2O,O′)rhodium(1)], the IC50 was 1.3 µM with COR L23; 7.9 µM with HeLa; 4.7 µM in test [1]; 2 µM in the test on COR L23/CPR; 3 µM in the test with CoLo 320DM. Moreover, the “Mean Inactivation Dose (Gy)” value in test [2] (0.39 μM complex) was found to be 3.73 Gy; in test [2] (0.78 μM complex), 4.46 Gy. Also, the “Dose Modifying Factor (DMF)” value stood at 1.9 in test [2] (0.39 μM complex) and 1.6 in test [2] (0.78 μM complex). Also, the “Sensitivity of CHO cells to irradiation under hypoxic conditions (in words)” value in test [2] is on record as “compare favorably with cisplatin”.
Turning to `C1=CCCC=CCC1.O=C(C=C([O-])C(F)(F)F)[c-]1cccc1.[Fe+2].[Rh+].c1cc[cH-]c1` [Rh(fctfa)(cod), (η^4-1,5-cyclooctadiene)(1-ferrocenyl-4,4,4-trifluooro-1,3-butanedionato-κ^2O,O′)rhodium(1)], the IC50 with COR L23 was 8.5 µM; in the test with HeLa, 12.5 µM; in test [1], 41.6 µM; in the test on COR L23/CPR, 5.8 µM; in the test with CoLo 320DM, 13.4 µM. For the same molecule, the “Tumor specificity: activity against tumor cells versus stimulated normal human lymphocytes” value in test [1] was 4-5 times. The “Mean Inactivation Dose (Gy)” value is listed as 2.41 Gy in test [2] (0.39 μM complex) and 2.19 Gy in test [2] (0.78 μM complex). The “Dose Modifying Factor (DMF)” value in test [2] (0.39 μM complex) stood at 2.6; in test [2] (0.78 μM complex), 2.9. The “Sensitivity of CHO cells to irradiation under hypoxic conditions (in words)” value in test [2] was “compare favorably with cisplatin”.
As to `[Cl][Rh]([Cl])[Cl]` [RhCl3], the Significant anticancer activity result in test [3] is listed as “none”.
`C1=CCCC=CCC1.O=C(C=C[O-])[c-]1cccc1.[Rh+].[Ru+2].c1cc[cH-]c1` [[Rh(RcH)(cod)], (η^4-1,5-cyclooctadiene)(1-ruthenocenyl-1,3-propanedionato-κ^2O,O′)rhodium(1)]: the IC50 is 34 µM in the test on COR L23, 52 µM in the test on HeLa, 39.6 µM with COR L23/CPR and 68.8 µM in the test on CoLo 320DM.
Regarding `C1=CCCC=CCC1.O=C(C=C([O-])[c-]1cccc1)c1ccccc1.[Rh+].[Ru+2].c1cc[cH-]c1` [[Rh(brcm)(cod)], (η^4-1,5-cyclooctadiene)(1-ruthenocenyl-3-phenyl-1,3-propanedionato-κ^2O,O′)rhodium(1)], the IC50 in the test with COR L23 was 15.8 µM; with HeLa it was 16.2 µM; in the test on COR L23/CPR it was 14.1 µM; with CoLo 320DM it was 20.4 µM.
Consider `C1=CCCC=CCC1.O=C(C=C([O-])[c-]1cccc1)[c-]1cccc1.[Fe+2].[Rh+].[Ru+2].c1cc[cH-]c1.c1cc[cH-]c1` [[Rh(fcrcm)(cod)], (η^4-1,5-cyclooctadiene)(1-ferrocenyl-3-ruthenocenyl-1,3-propanedionato-κ^2O,O′)rhodium(1)], for which the IC50 in the test on COR L23 was determined as 10.1 µM; in the test on HeLa, 17.1 µM; in the test on COR L23/CPR, 20.1 µM; in the test on CoLo 320DM, 29.2 µM.
For `C1=CCCC=CCC1.CC(=O)C=C([O-])[c-]1cccc1.[Rh+].[Ru+2].c1cc[cH-]c1` [[Rh(rca)(cod)], (η^4-1,5-cyclooctadiene)(1-ruthenocenyl-1,3-butanedionato-κ^2O,O′)rhodium(1)], the IC50 turned out to be 0.18 µM in the test on COR L23, 4.86 µM in the test with HeLa, 2.74 µM in the test with COR L23/CPR and 3 µM with CoLo 320DM.
Consider `C1=CCCC=CCC1.O=C(C=C([O-])C(F)(F)F)[c-]1cccc1.[Rh+].[Ru+2].c1cc[cH-]c1` [[Rh(rctfa)(cod)], (η^4-1,5-cyclooctadiene)(1-ruthenocenyl-4,4,4-trifluooro-1,3-butanedionato-κ^2O,O′)rhodium(1)], for which the IC50 in the test with COR L23 turned out to be 49.2 µM; in the test on HeLa, 54.7 µM; in the test with COR L23/CPR, 48 µM; in the test with CoLo 320DM it was 67.4 µM.
In the case of `C1=C\CC/C=C\CC/1.C1=C\CC/C=C\CC/1.[Cl-].[Cl-].[Rh].[Rh]` [[RhCl(cod)]2], the Significant anticancer activity entry in test [3] is recorded as “none”.
For the molecule `N.N.[Cl][Pt][Cl]` [cisplatin], the “Published dose modifying factors (DMFs)” value in test [4] is on record as 1.2-2.
For the molecule “(η^4-1,5-cyclooctadiene)(1,3-diferrocenyl-1,3-propanedionato-κ^2O,O′)rhodium(1) [Rh(dfcm)(cod)]”, the IC50 in the test on COR L23 was 19.9 µM; in the test with HeLa it was 18.4 µM; in test [1] it was 42.2 µM; in the test with COR L23/CPR it was 30.8 µM; in the test on CoLo 320DM, 70.8 µM.
“(η^4-1,5-cyclooctadiene)(1-ferrocenyl-1,3-propanedionato-κ^2O,O′)rhodium(1) [Rh(FcH)(cod)]”: the IC50 stood at 62.4 µM in the test with HeLa and 35.4 µM in the test on CoLo 320DM.
Consider acetyl ferrocene, for which the Significant anticancer activity result in test [3] is reported as “none”.
In the case of benzoylferrocenoylmethane [Hbfcm], the IC50 was 66.8 µM with COR L23; 54.2 µM with HeLa; more than 100 µM in test [1]; 80.4 µM in the test with COR L23/CPR; 85.1 µM in the test on CoLo 320DM.
In the case of diferrocenoylmethane [Hdfcm], the IC50 in the test on COR L23 was 75.4 µM; with HeLa, 54.4 µM; in test [1], more than 100 µM; in the test on COR L23/CPR, 74.4 µM; in the test with CoLo 320DM, 64.3 µM.
Turning to ferrocenoylacetone [Hfca], the IC50 amounted to 66.6 µM in the test on HeLa and 57.1 µM with CoLo 320DM.
ferrocenoyltrifluoroacetone [Hfctfa]: the IC50 in the test on COR L23 was found to be 4.5 µM; in the test on HeLa it was 6.8 µM; in test [1], 83.1 µM; in the test with COR L23/CPR it was 6.3 µM; in the test on CoLo 320DM it was 7.3 µM. In addition, the “Tumor specificity: activity against tumor cells versus stimulated normal human lymphocytes” value in test [1] is on record as “eight”. In addition, in test [2], the “Radiosensitisation, initial tests (in words)” value was “promising”.
